The target of assay [1] is recombinant human EGFR exon 19 deletion/C797S double mutant protein (Homo sapiens (Human), UniProt P00533, C797S/DEL746-750). Put plainly: Biological Activity Assay C: biochemical assay against EGFR exon 19 deletion/C797S protein (EGFR d19/CS). The method, boiled down:
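Compounds were tested as 16-point serial dilutions (final DMSO 2.5%) with a Phosphosens peptide sensor/ATP working solution (40 uM/4 mM). The signal was read kinetically over 90 cycles at 120 s intervals. IC50s came from 4-parameter fits of per-well slopes.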

The next assay relates to Ba/F3_EGFR WT cells. Put plainly: Biological Activity Assay D: BaF3 cell proliferation assay, EGFR wild-type (BaF3 WT). The assay is classed as cell-based. The settings on record: Ba/F3 EGFR; Ba/F3_EGFR WT cells, ~72 hours, CellTiter-Glo; read-out: BaF3 WT IC50.
A further assay relates to BaF3_EGFR LR/CS cells. Put plainly: Biological Activity Assay D: BaF3 cell proliferation assay, EGFR L858R/C797S mutant (BaF3 LR/CS). The assay is classed as cell-based. The settings on record: Ba/F3 EGFR; BaF3_EGFR LR/CS cells, ~72 hours, CellTiter-Glo; read-out: BaF3 LR/CS IC50.
The test system of the next assay is BaF3_EGFR d19/CS cells. In words: Biological Activity Assay D: BaF3 cell proliferation assay, EGFR exon 19 deletion/C797S (BaF3 d19/CS). The assay is classed as cell-based. The settings on record: Ba/F3 EGFR; BaF3_EGFR d19/CS cells, ~72 hours, CellTiter-Glo; read-out: BaF3 d19/CS IC50.

Sequence of recombinant human EGFR exon 19 deletion/C797S double mutant protein (P00533 other isoform, or with tags, fused parts or gaps C797S/del 1-668/del 746-750 limits assumed): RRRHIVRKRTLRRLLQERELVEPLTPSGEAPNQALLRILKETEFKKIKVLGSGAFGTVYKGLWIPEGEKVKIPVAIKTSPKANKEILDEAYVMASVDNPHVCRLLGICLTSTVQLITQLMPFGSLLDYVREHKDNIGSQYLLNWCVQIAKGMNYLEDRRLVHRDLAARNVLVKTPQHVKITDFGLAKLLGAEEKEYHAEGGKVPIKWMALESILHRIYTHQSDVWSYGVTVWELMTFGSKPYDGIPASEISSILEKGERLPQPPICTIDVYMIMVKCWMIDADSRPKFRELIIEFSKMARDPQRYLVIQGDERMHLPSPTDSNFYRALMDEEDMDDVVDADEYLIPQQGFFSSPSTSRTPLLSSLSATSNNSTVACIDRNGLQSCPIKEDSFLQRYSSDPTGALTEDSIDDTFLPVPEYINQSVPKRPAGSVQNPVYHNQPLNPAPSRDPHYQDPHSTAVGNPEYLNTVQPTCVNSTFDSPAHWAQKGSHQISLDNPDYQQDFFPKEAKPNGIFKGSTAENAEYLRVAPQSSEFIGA

For the molecule `CC(C)(O)Cn1cc(-c2ncnc3oc(-c4cccnc4)cc23)c(-c2ccc(F)cc2)n1` [Example 255, 1-{3-(4-fluorophenyl)-4-[6-(pyridin-3-yl)furo[2,3-d]pyrimidin-4-yl]-1H-pyrazol-1-yl}-2-methylpropan-2-ol], the IC50 in assay [1] was found to be 0.47 nM; in the assay on Ba/F3_EGFR WT cells, 1700 nM; in the assay on BaF3_EGFR LR/CS cells, 51 nM; with BaF3_EGFR d19/CS cells, 32.4 nM.

For `Cn1cc(-c2cc3c(-c4cn([C@H]5C[C@@H](S(C)(=O)=O)C5)nc4-c4ccc(F)cc4)ncnc3o2)cn1` [Example 256, 4-{3-(4-fluorophenyl)-1-[(1s,3s)-3-(methanesulfonyl)cyclobutyl]-1H-pyrazol-4-yl}-6-(1-methyl-1H-pyrazol-4-yl)furo[2,3-d]pyrimidine], the IC50 in assay [1] was found to be 0.19 nM; with Ba/F3_EGFR WT cells, 403 nM; in the assay with BaF3_EGFR LR/CS cells, 5.23 nM; in the assay with BaF3_EGFR d19/CS cells, 11.2 nM.

`CC(C)(O)Cn1cc(-c2ncnc3oc(-c4ccccn4)cc23)c(-c2ccc(F)cc2)n1` [Example 257, 1-{3-(4-fluorophenyl)-4-[6-(pyridin-2-yl)furo[2,3-d]pyrimidin-4-yl]-1H-pyrazol-1-yl}-2-methylpropan-2-ol]: the IC50 in assay [1] turned out to be 0.2 nM; in the assay with Ba/F3_EGFR WT cells, 1010 nM; in the assay on BaF3_EGFR LR/CS cells, 18.2 nM; in the assay with BaF3_EGFR d19/CS cells, 20.8 nM.

In the case of `Cc1c(-c2cc3c(-c4cn(CC(C)(C)O)nc4-c4ccc(F)cc4)ncnc3o2)cnn1C` [Example 258, 1-{4-[6-(1,5-dimethyl-1H-pyrazol-4-yl)furo[2,3-d]pyrimidin-4-yl]-3-(4-fluorophenyl)-1H-pyrazol-1-yl}-2-methylpropan-2-ol], the IC50 in assay [1] was found to be 0.16 nM; in the assay with Ba/F3_EGFR WT cells, 976 nM; in the assay with BaF3_EGFR LR/CS cells, 12.7 nM; with BaF3_EGFR d19/CS cells, 18.5 nM.

Turning to `Cn1cnc(-c2cc3c(-c4cn([C@H]5C[C@@H](S(C)(=O)=O)C5)nc4-c4ccc(F)cc4)ncnc3o2)c1` [Example 259, 4-{3-(4-fluorophenyl)-1-[(1s,3s)-3-(methanesulfonyl)cyclobutyl]-1H-pyrazol-4-yl}-6-(1-methyl-1H-imidazol-4-yl)furo[2,3-d]pyrimidine], the IC50 in assay [1] came to 0.1 nM; with Ba/F3_EGFR WT cells it was 498 nM; with BaF3_EGFR LR/CS cells, 4.44 nM; in the assay with BaF3_EGFR d19/CS cells, 14.4 nM.

`CC(=O)N1C=C(c2cc3c(-c4cn(CC(C)(C)O)nc4-c4ccc(F)cc4)ncnc3o2)CCC1` [Example 260, 1-[5-{4-[3-(4-fluorophenyl)-1-(2-hydroxy-2-methylpropyl)-1H-pyrazol-4-yl]furo[2,3-d]pyrimidin-6-yl}-3,4-dihydropyridin-1 (2H)-yl]ethan-1-one]: the IC50 in assay [1] amounted to 0.35 nM; in the assay with Ba/F3_EGFR WT cells, 1920 nM; in the assay on BaF3_EGFR LR/CS cells, 17 nM; in the assay with BaF3_EGFR d19/CS cells it was 33 nM.

As to `Cn1cc(-c2cc3c(-c4cn(CC(C)(C)O)nc4-c4ccc(F)cc4)ncnc3o2)cn1` [Example 261, 1-{3-(4-fluorophenyl)-4-[6-(1-methyl-1H-pyrazol-4-yl)furo[2,3-d]pyrimidin-4-yl]-1H-pyrazol-1-yl}-2-methylpropan-2-ol], the IC50 was found to be 0.206 nM in assay [1], 550 nM with Ba/F3_EGFR WT cells, 4.53 nM with BaF3_EGFR LR/CS cells and 10.1 nM in the assay on BaF3_EGFR d19/CS cells.

Regarding `CC(C)(O)Cn1cc(-c2ncnc3oc(-c4ccccc4Cl)cc23)c(-c2ccc(F)cc2)n1` [Example 262, 1-{4-[6-(2-chlorophenyl)furo[2,3-d]pyrimidin-4-yl]-3-(4-fluorophenyl)-1H-pyrazol-1-yl}-2-methylpropan-2-ol], the IC50 was determined as 0.396 nM in assay [1], 4060 nM in the assay on Ba/F3_EGFR WT cells, 78.2 nM in the assay with BaF3_EGFR LR/CS cells and 47 nM in the assay on BaF3_EGFR d19/CS cells.

As to `Cn1cnc(-c2cc3c(-c4cn(CCC(F)F)nc4-c4ccc(F)cc4)ncnc3o2)c1` [Example 263, 4-[1-(3,3-difluoropropyl)-3-(4-fluorophenyl)-1H-pyrazol-4-yl]-6-(1-methyl-1H-imidazol-4-yl)furo[2,3-d]pyrimidine], the IC50 amounted to 0.153 nM in assay [1], 235 nM in the assay on Ba/F3_EGFR WT cells, 2.36 nM in the assay on BaF3_EGFR LR/CS cells and 6.17 nM with BaF3_EGFR d19/CS cells.

Turning to `Cn1cnc(-c2cc3c(-c4cn([C@H]5C[C@@H](F)C5)nc4-c4ccc(F)cc4)ncnc3o2)c1` [Example 264, 4-{1-[(1s,3s)-3-fluorocyclobutyl]-3-(4-fluorophenyl)-1H-pyrazol-4-yl}-6-(1-methyl-1H-imidazol-4-yl)furo[2,3-d]pyrimidine], the IC50 in assay [1] came to 0.135 nM; in the assay on Ba/F3_EGFR WT cells it was 448 nM; in the assay with BaF3_EGFR LR/CS cells it was 6.54 nM; with BaF3_EGFR d19/CS cells, 8.85 nM.

Turning to `Cn1cnc(-c2cc3c(-c4cn(CCC#N)nc4-c4ccc(F)cc4)ncnc3o2)c1` [Example 265, 3-{3-(4-fluorophenyl)-4-[6-(1-methyl-1H-imidazol-4-yl)furo[2,3-d]pyrimidin-4-yl]-1H-pyrazol-1-yl}propanenitrile], the IC50 in assay [1] was found to be 0.078 nM; in the assay on Ba/F3_EGFR WT cells it was 69.9 nM; in the assay on BaF3_EGFR LR/CS cells, 1.43 nM; with BaF3_EGFR d19/CS cells it was 1.46 nM.

As for `Cn1cnc(-c2cc3c(-c4cn(CC(F)(F)CO)nc4-c4ccc(F)cc4)ncnc3o2)c1` [Example 266, 2,2-difluoro-3-{3-(4-fluorophenyl)-4-[6-(1-methyl-1H-imidazol-4-yl)furo[2,3-d]pyrimidin-4-yl]-1H-pyrazol-1-yl}propan-1-ol], the IC50 in assay [1] was 0.094 nM; in the assay on Ba/F3_EGFR WT cells, 135 nM; in the assay with BaF3_EGFR LR/CS cells, 2.13 nM; in the assay with BaF3_EGFR d19/CS cells, 2.5 nM.

Regarding `Cn1ncc(-c2cc3c(-c4cn(CC(C)(C)O)nc4-c4ccc(F)cc4)ncnc3o2)c1C(F)F` [Example 267, 1-[4-{6-[5-(difluoromethyl)-1-methyl-1H-pyrazol-4-yl]furo[2,3-d]pyrimidin-4-yl}-3-(4-fluorophenyl)-1H-pyrazol-1-yl]-2-methylpropan-2-ol], the IC50 was 0.185 nM in assay [1], 688 nM in the assay on Ba/F3_EGFR WT cells, 22.2 nM in the assay with BaF3_EGFR LR/CS cells and 16 nM in the assay on BaF3_EGFR d19/CS cells.

In the case of `N#CCCn1cc(-c2ncnc3oc(-c4cccnc4)cc23)c(-c2ccc(F)cc2)n1` [Example 268, 3-{3-(4-fluorophenyl)-4-[6-(pyridin-3-yl)furo[2,3-d]pyrimidin-4-yl]-1H-pyrazol-1-yl}propanenitrile], the IC50 amounted to 0.104 nM in assay [1], 414 nM with Ba/F3_EGFR WT cells, 16.5 nM in the assay on BaF3_EGFR LR/CS cells and 13.3 nM with BaF3_EGFR d19/CS cells.

For the molecule `N#CCCn1cc(-c2ncnc3oc(-c4ccccn4)cc23)c(-c2ccc(F)cc2)n1` [Example 269, 3-{3-(4-fluorophenyl)-4-[6-(pyridin-2-yl)furo[2,3-d]pyrimidin-4-yl]-1H-pyrazol-1-yl}propanenitrile], the IC50 turned out to be 0.082 nM in assay [1], 392 nM with Ba/F3_EGFR WT cells, 8.63 nM with BaF3_EGFR LR/CS cells and 7.72 nM in the assay on BaF3_EGFR d19/CS cells.

`Cn1cnc(-c2cc3c(-c4cn([C@H]5C[C@H](C#N)C5)nc4-c4ccc(F)cc4)ncnc3o2)c1` [Example 270, (1r,3r)-3-{3-(4-fluorophenyl)-4-[6-(1-methyl-1H-imidazol-4-yl)furo[2,3-d]pyrimidin-4-yl]-1H-pyrazol-1-yl}cyclobutane-1-carbonitrile]: the IC50 in assay [1] was found to be 0.227 nM; in the assay on Ba/F3_EGFR WT cells, 134 nM; in the assay on BaF3_EGFR LR/CS cells, 1.88 nM; with BaF3_EGFR d19/CS cells, 1.32 nM.

The values are drawn from patent publication US20250034159A1, “INHIBITORS OF EPIDERMAL GROWTH FACTOR RECEPTOR” (ORIC Pharmaceuticals, Inc., priority 2021, published 2025).
